Assay results taken from paper PMC3135787 (Antiviral research, 2011).
Several values for one entry are separate records, joined by “and”; a condition that tells them apart may be missing. Identical values can stand only once. Like-named read-outs stand apart in the source and are kept apart here.

Columns and labels:
[1] = molecular target: human carboxylesterase 1 (CES-1) (Homo sapiens, UniProt P23141); assay: Hydrolysis of the carboxyl ester by carboxylesterase 1; assay type: biochemical
[2] = system: genotype 2a J6/JFH-1 subgenomic replicon; assay: HCV replicon assay, genotype 2a J6/JFH-1; assay type: cell-based; conditions: GT2a_JFH-1 replicon, four days
[3] = system: genotype 1b replicon (Con1 strain); assay: HCV replicon assay, genotype 1b Con1; assay type: cell-based; conditions: GT1b_Con1 replicon, four days
[4] = system: primary human hepatocytes; assay: Metabolism of [3H]-PSI-353661 in primary human hepatocytes; assay type: in vitro ADME; conditions: 5 μM [3H]-PSI-353661, up to 24 hours
[5] = system: Clone A wild type replicon; assay: Cross resistance: Clone A wild type replicon, RT-PCR; assay type: cell-based, HCV; conditions: read-out: EC90 WT replicon; Clone A wild type replicon, RT-PCR assay
[6] = system: ET replicon with NS5B M423T; assay type: cell-based, HCV
[7] = system: ET replicon with NS5B S96T/N142T; assay: microbe, parasite or virus in culture; assay type: cell-based, HCV
[8] = system: erythroid progenitor cells (CFU-E and BFU-E); assay: Human bone marrow stem cell toxicity, 14-day colony formation, erythroid; assay type: cell-based; conditions: read-out: IC50, erythroid progenitor cells (CFU-E and BFU-E); 14-day colony formation assay
recombinant human ADAL1 = molecular target: T1, recombinant human ADAL1 (Homo sapiens, UniProt Q6DHV7); assay: ADAL1-mediated demethylation assay; assay type: biochemical; conditions: ADAL1, pH 6.7, 37°C
T1 sequence (Q6DHV7 1-355): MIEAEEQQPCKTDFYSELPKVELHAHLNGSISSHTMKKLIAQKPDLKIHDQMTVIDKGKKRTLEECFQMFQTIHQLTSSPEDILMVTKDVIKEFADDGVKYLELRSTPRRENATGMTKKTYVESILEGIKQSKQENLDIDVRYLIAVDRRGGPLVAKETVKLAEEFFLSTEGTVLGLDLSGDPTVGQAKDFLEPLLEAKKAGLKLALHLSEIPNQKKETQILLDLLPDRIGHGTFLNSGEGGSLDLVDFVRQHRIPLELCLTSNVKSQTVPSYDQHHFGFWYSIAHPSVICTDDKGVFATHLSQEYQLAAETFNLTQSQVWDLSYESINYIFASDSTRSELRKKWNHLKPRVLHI

[9] = molecular target: human cathepsin A (Cat A) (Homo sapiens, UniProt P10619); assay: Hydrolysis of the carboxyl ester by cathepsin A; assay type: biochemical; conditions: CatA, 100 μM substrate, 37 °C
human cathepsin A (Cat A), sequence (P10619 29-326 limits assumed): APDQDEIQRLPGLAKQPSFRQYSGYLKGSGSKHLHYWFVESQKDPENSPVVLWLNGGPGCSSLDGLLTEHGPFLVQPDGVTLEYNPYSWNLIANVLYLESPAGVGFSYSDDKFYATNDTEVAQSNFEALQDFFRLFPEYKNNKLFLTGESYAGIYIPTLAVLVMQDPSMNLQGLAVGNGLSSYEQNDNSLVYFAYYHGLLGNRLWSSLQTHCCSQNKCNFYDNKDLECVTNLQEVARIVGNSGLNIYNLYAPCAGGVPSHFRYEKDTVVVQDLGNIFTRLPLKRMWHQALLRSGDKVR
human cathepsin A (Cat A), sequence (P10619 327-480 limits assumed): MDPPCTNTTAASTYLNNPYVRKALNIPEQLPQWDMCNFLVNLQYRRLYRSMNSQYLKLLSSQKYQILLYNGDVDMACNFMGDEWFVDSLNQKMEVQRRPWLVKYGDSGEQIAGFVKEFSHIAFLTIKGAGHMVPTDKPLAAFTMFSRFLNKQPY

HepG2 cells [10] = assay: Mitochondrial COXII DNA and ribosomal DNA by real time PCR, HepG2; assay type: cell-based, human; conditions: HepG2 cells; for CC90: fourteen days
[11] = system: ET replicon with NS5B C316Y; assay: microbe, parasite or virus in culture; assay type: cell-based, HCV
HepG2 cells [12] = assay: Lactic acid production, HepG2; conditions: 7 days, normalised to rDNA
CEM cells [13] = assay: 8-day MTS cytotoxicity assay, CEM; assay type: cell-based, human; conditions: CEM, eight days, MTS
[14] = system: HCV 2a JFH-1 infectious virus; assay: Infectious virus assay, genotype 2a; assay type: cell-based; conditions: GT2a_JFH-1 infectious virus, En5-3 cells, three days
HepG2 cells [15] = assay: 8-day MTS cytotoxicity assay, HepG2; assay type: cell-based, human; conditions: HepG2, eight days, MTS
[16] = system: Clone A replicon with NS5B S282T; assay: microbe, parasite or virus in culture; assay type: cell-based, HCV
CEM cells [17] = assay: Mitochondrial COXII DNA and ribosomal DNA by real time PCR, CEM; assay type: cell-based, human; conditions: CEM cells; for CC90: fourteen days
[18] = system: ET replicon with NS5B P495L; assay: microbe, parasite or virus in culture; assay type: cell-based, HCV
[19] = system: ET replicon with NS5B M414T; assay: microbe, parasite or virus in culture; assay type: cell-based, HCV
CEM cells [20] = assay: Lactic acid production, CEM; conditions: 7 days, normalised to rDNA
[21] = system: myeloid progenitor cells (CFU-GM); assay: Human bone marrow stem cell toxicity, 14-day colony formation, myeloid; assay type: cell-based; conditions: read-out: IC50, myeloid progenitor cells (CFU-GM); 14-day colony formation assay
[22] = system: genotype 1a H77 subgenomic replicon; assay: HCV replicon assay, genotype 1a H77; assay type: cell-based; conditions: GT1a_H77 replicon, four days
Huh7 cells = assay: 8-day MTS cytotoxicity assay, Huh7; assay type: cell-based, human; conditions: Huh7, eight days, MTS
[23] = system: HCV 1a H77Sv2 infectious virus; assay: Infectious virus assay, genotype 1a; assay type: cell-based; conditions: GT1a_H77 infectious virus, En5-3 cells, three days
BxPC3 cells = assay: 8-day MTS cytotoxicity assay, BxPC3; assay type: cell-based, human; conditions: BxPC3, eight days, MTS
[24] = system: genotype 1b ET replicon, wild type; assay type: cell-based, HCV; conditions: read-out: EC90 WT replicon
ET-Lunet replicon cells = assay: HCV replicon clearance and rebound study; assay type: cell-based; conditions: for clearance of replicon RNA (colony formation after 14 days G418 without compound): 14 days treatment

human carboxylesterase 1 (CES-1), sequence (P23141 18-567): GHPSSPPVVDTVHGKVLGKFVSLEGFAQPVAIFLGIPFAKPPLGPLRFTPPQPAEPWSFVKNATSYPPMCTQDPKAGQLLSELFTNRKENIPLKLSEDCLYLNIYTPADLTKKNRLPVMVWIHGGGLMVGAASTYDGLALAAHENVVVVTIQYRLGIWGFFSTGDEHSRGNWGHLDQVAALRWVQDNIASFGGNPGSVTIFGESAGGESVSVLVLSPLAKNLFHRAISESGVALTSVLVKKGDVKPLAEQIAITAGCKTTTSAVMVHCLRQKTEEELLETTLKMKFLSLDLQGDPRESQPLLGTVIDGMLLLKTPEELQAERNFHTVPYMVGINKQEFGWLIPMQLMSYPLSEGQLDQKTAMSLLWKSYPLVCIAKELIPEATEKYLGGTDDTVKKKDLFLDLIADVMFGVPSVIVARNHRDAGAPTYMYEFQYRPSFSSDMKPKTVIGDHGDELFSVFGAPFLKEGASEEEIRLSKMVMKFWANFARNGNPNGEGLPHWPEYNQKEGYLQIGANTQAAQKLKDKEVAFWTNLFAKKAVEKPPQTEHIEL

For `COc1nc(N)nc2c1ncn2[C@@H]1O[C@H](COP(=O)(N[C@@H](C)C(=O)OC(C)C)Oc2ccccc2)[C@@H](O)[C@@]1(C)F` (stereo partly drawn) [PSI-353661, (S)-2-{(S)-[(1R,4R,5R)-5-(2-amino-6-methoxy-purin-9-yl)-4-(R)-fluoro-3-hydroxy-4-methyl-tetrahydro-furan-2-ylmethoxy]-phenoxy-phosphorylamino}-propionic acid isopropyl ester], the “rate of hydrolysis (specific activity)” value ([1]; CES1, 100 μM substrate, 37 °C, not time-dependent) was ~0.034 µmol/min/mg, the “fraction converted to product PSI-353131” value ([1]; incubation with CES1) was ~10% and the EC50 [2] was 6.5 ± 2.1 nM. The EC90 [2] was 14 ± 1.4 nM, the EC50 [3] was 3 ± 1.4 nM and the EC90 [3] was 8.5 ± 0.7 nM. The “intracellular level of parent compound” value [4] was “undetectable”, the EC90 [5] was 9 nM and 9.3 nM and the EC90 fold change [6] was 0.8. The EC90 ([6]; read-out: EC90 Mutant replicon, M423T, luciferase-based assay) was 9.7 ± 1.9 nM, the EC90 fold change [7] was 0.7 and the EC90 ([7]; read-out: EC90 Mutant replicon, S96T/N142T, luciferase-based assay) was 8.7 ± 3.7 nM. The IC50 [8] was > 50000 nM, the Km (recombinant human ADAL1) was “No activity” and the kcat (recombinant human ADAL1) was “No activity”. The “kcat / Km” value (recombinant human ADAL1) was “No activity”, the “specific activity of hydrolysis to PSI-353131” value [9] was 0.80 µmol/min/mg and the “effect on mitochondrial DNA content” value (HepG2 cells [10]; up to 100 μM, 14 days) was “did not affect mitochondrial DNA content”. The CC90 (HepG2 cells [10]; read-out: CC90 mtDNA) was > 100000 nM, the CC90 (HepG2 cells [10]; read-out: CC90 rDNA) was > 100000 nM and the EC90 fold change [11] was 0.8. For the same compound, the EC90 ([11]; read-out: EC90 Mutant replicon, C316Y, luciferase-based assay) was 9.8 ± 3.5 nM, the “Lactic acid (Fold change from untreated cells)” value (HepG2 cells [12]; 0.1 μM) was 1.2 ± 0.35 and the “Lactic acid (Fold change from untreated cells)” value (HepG2 cells [12]; 1.0 μM) was 1.2 ± 0.29. The “Lactic acid (Fold change from untreated cells)” value (HepG2 cells [12]; 10 μM) was 1.1 ± 0.06, the “Lactic acid (Fold change from untreated cells)” value (HepG2 cells [12]; 50 μM) was 1.3 ± 0.31 and the CC50 (CEM cells [13]) was > 100000 nM. The EC50 [14] was 1.6 nM, the EC90 [14] was 11.2 nM and the CC50 (HepG2 cells [15]) was > 100000 nM. For the same compound, the EC90 fold change [16] was 1.5, the EC90 ([16]; read-out: EC90 Mutant replicon, S282T, RT-PCR assay) was 14 ± 2.6 nM and the “effect on mitochondrial DNA content” value (CEM cells [17]; up to 100 μM, 14 days) was “did not affect mitochondrial DNA content”. For the same compound, the CC90 (CEM cells [17]; read-out: CC90 mtDNA) was > 100000 nM, the CC90 (CEM cells [17]; read-out: CC90 rDNA) was > 100000 nM and the EC90 fold change [18] was 1.0. It also gave an EC90 ([18]; read-out: EC90 Mutant replicon, P495L, luciferase-based assay) of 12 ± 0.34 nM, an EC90 fold change [19] of 1.0 and an EC90 ([19]; read-out: EC90 Mutant replicon, M414T, luciferase-based assay) of 12 ± 2.2 nM. The “Lactic acid (Fold change from untreated cells)” value (CEM cells [20]; 0.1 μM) was 1.4 ± 0.36, the “Lactic acid (Fold change from untreated cells)” value (CEM cells [20]; 1.0 μM) was 1.4 ± 0.10 and the “Lactic acid (Fold change from untreated cells)” value (CEM cells [20]; 10 μM) was 1.4 ± 0.31. The “Lactic acid (Fold change from untreated cells)” value (CEM cells [20]; 50 μM) was 1.3 ± 0.40, the IC50 [21] was 45000 ± 2000 nM and the EC50 [22] was 4.5 ± 0.7 nM. For the same compound, the EC90 [22] was 10.5 ± 0.7 nM, the CC50 (Huh7 cells) was 80000 ± 6000 nM and the EC50 [23] was 3.5 nM. For the same compound, the EC90 [23] was 8.6 nM, the CC50 (BxPC3 cells) was > 100000 nM and the EC90 [24] was 12 ± 4 nM. For the same compound, the “reduction of HCV replicon RNA” value (ET-Lunet replicon cells; 8 nM (2× EC50), end of first 14-days, no G418) was 1 log, the “decrease in HCV replicon RNA” value (ET-Lunet replicon cells; 20 nM dose, end of first 14-days, no G418) was > 4 log and the “clearance of replicon RNA (colony formation after 14 days G418 without compound)” value (ET-Lunet replicon cells; 20 nM) was “partial clearance”. For the same compound, the “HCV RNA level” value (ET-Lunet replicon cells; 40 and 80 nM doses, by day 10) was “undetectable”, the “clearance of replicon RNA (colony formation after 14 days G418 without compound)” value (ET-Lunet replicon cells; 40 and 80 nM) was “completely eliminated the replicon” and the EC50 (ET-Lunet replicon cells; read-out: EC50 value, ET-Lunet replicon cells, value used to set clearance doses) was 4 nM.
